The source of these data is patent publication US11813277B2, “Methods and agents for modulating inflammation” (The Regents of the University of California, priority 2018, dated 2023).

Molecules are shown by their SMILES.

The target in one assay is T1, CPT-1 (Homo sapiens, UniProt P50416).
T1 sequence (P50416 1-773): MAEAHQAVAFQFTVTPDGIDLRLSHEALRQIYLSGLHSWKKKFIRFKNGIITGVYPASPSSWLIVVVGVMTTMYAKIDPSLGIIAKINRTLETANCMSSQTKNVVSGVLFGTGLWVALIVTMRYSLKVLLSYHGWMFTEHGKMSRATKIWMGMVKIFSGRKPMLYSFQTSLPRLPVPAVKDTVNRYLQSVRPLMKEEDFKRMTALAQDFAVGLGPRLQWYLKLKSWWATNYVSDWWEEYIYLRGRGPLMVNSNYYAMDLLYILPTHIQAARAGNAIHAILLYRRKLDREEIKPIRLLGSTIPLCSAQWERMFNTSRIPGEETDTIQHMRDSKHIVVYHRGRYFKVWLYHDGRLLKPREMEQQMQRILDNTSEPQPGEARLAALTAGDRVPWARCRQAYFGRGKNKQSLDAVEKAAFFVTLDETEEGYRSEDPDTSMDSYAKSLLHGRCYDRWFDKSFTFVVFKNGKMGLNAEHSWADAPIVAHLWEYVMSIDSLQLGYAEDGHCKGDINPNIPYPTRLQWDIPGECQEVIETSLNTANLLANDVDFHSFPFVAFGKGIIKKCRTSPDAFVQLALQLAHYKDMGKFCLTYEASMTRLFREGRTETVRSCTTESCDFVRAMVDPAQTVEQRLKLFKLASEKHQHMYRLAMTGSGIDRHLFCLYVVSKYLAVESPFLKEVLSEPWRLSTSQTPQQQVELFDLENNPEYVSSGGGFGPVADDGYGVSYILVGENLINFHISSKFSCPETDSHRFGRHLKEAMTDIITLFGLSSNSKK
The assay is described as follows: Palmitoyl CoA-driven respiration in permeabilized HepG2 cells. In kind it is cell-based. Details: endogenous in cells; host or cells: HepG2 (A5).

The next assay deals with LCFA oxidation in BMDMs. Nature of the assay: 9,10-3H-palmitate oxidation (3H2O release) in BMDMs. It is filed as cell-based, mouse. Conditions: 3 μM etomoxir. As to the method: BMDMs at day 6 of differentiation were seeded at 3×10^5 cells/well in 12 well plates in BMDM media. The next day, cells were treated in DMEM containing 25 mM glucose supplemented with 5% FBS, 2 mM L-Glutamax, 100 units/mL, 100 μg/mL penicillin/streptomycin, 1 mM of sodium pyruvate, 1 mM carnitine, and 5% v/v conditioned media containing macrophage colony stimulating factor (M-CSF) under one of 5 conditions: control, 20 ng/mL of IL-4±3 μM or 200 μM of etomoxir, or 200 nM rotenone, or 200 nM antimycin A for 24 hr. Fatty acid oxidation was measured 24 hours later as previously described (Rognstad, R. (1991) Estimation of peroxisomal and mitochondrial fatty acid oxidation in rat hepatocytes using tritiated substrates. Biochem J 279:147-150, 1991; Cha, B. S., Ciaraldi, T. P., Park, K. S., Carter, L., Mudaliar, S. R., and Henry R R. (2005) Impaired fatty acid metabolism in type 2 diabetic skeletal muscle cells is reversed by PPARgamma agonists. Am J Physiol Endocrinol Metab. 289, E151-9) following a fluid change to DMEM with components as described above except 10 mM glucose and 0.2 μCi (final concentration of 5 μM) BSA-conjugated [9,10-3H]palmitic acid. No additional IL-4 was added at the time of this fluid change, but etomoxir, rotenone and antimycin A were added, and the plates were placed in a […] incubator at 37° C. for 3 hr. After incubation, a 100 μL aliquot of the culture medium was passed over an ion-exchange resin, and the column was washed twice with 0.75 ml of water. Free fatty acids were retained by the resin, whereas the tritium hydrolyzed from radiolabeled palmitate catabolism was released as labeled water, which passes freely through the resin, and is subsequently counted for radioactivity. All data are corrected for protein content in each well. There were 3 technical replicates for each condition, and 4 biological replicates arising from 4 separate animals.

For another assay, the system named is Arginase. The assay is described as follows: Arginase activity in BMDMs. In kind it is cell-based, mouse. The note with it: 200 μM etomoxir, IL-4, 24 hr. As to the method: On Day 6 of differentiation, BMDMs were seeded at 1×10^6 cells/well in 6-well plates. 24 hr later, BMDMs were mock-treated or co-treated with 20 ng/mL IL-4±200 μM etomoxir in DMEM supplemented with 5% FBS, 2 mM L-glutamine, 100 units/mL, 100 μg/mL penicillin/streptomycin, 500 μM of sodium pyruvate and 5% v/v conditioned media containing macrophage colony stimulating factor (M-CSF) for 24 hr. Prior to sample collections, cells were washed with 600 μL of ice-cold PBS twice and scraped into 1.5 mL centrifuge tubes. Cell lysate was prepared according to Arginase Activity Assay Kit (Sigma MAK112) instructions and the 20 μL of lysate was used to measure arginase activity. Arginase activity was adjusted to total cell number.

The test system of a further assay is 3T3-L1 adipocytes. The assay is described as follows: Maximal respiration in 3T3-L1 adipocytes (positive control). In kind it is cell-based. Conditions: 3 μM etomoxir. As for the experimental part: All respirometry studies were conducted in either a Seahorse XF96 or XFe96 Analyzer. All experiments were conducted at 37° C., and at pH 7.4 (intact cells) or 7.2 (permeabilized cells and isolated mitochondria). Calculation of respiratory parameters was made according to standard protocols (Divakaruni, A. S., Paradyse, A., Ferrick, D. A., Murphy, A. N., and Jastroch, M. (2014a) Analysis and interpretation of microplate-based oxygen consumption and pH data. Meth. Enzym 547, 509-54), and all rates were corrected for non-mitochondrial respiration/background signal by subtracting the oxygen consumption rate insensitive to rotenone plus antimycin A.
Detailed description of FIG. 5. (FIG. 5A) Maximal FCCP-stimulated respiration in response to 3 μM etomoxir in six cell types (experimental conditions in Materials and Methods). […] (n≥3 independent biological replicates). (FIG. 5B) (Left) Maximal respiration in HepG2 cells offered 8 mM glucose, 2 mM glutamine, and 2 mM pyruvate in the experimental medium with BPTES and UK5099 (both at 3 μM)±3 μM etomoxir. (n=4 independent biological replicates). (Right) Maximal respiration in 3T3-L1 adipocytes offered 1 mM glucose and 0.5 mM carnitine in the experimental medium with increasing concentrations of etomoxir. (n=3 independent biological replicates). […]

With `CCOC(=O)[C@@]1(CCCCCCOc2ccc(Cl)cc2)CO1` [etomoxir], at CPT-1, the “EC50, FCCP-stimulated palmitoyl CoA-driven respiration” value was “nanomolar” and the “concentration of saturable effect” value is “less than 3 μM”. Further, the “3H2O release from tritiated palmitate” value with LCFA oxidation in BMDMs is given as “effectively suppress”. For the same compound, the Arginase activity result in the assay on Arginase is “unaffected”. Also, the respiration entry in the assay on 3T3-L1 adipocytes is given as “sufficient to inhibit respiration”.
